These results are taken from PubChem BioAssay (NCI).

Each structure is given as a SMILES string.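 Grown in 96-well plates, cells were treated for 48 hours with each compound at five concentrations. Insufficient inhibition: endpoint recorded as highest concentration tested. GI50: concentration for 50% inhibition of growth. TGI is the concentration that stops growth completely.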 A value given as a limit tells only on which side of the number the result lay.

Some test systems named below: K-562 leukemia; EKVX NSCLC; HCC-2998 colon; IGROV1 ovarian; HCT-116 colon; NCI-H522 lung; SK-MEL-2 melanoma; NCI-H460 lung; MOLT-4 leukemia; COLO 205 colon; SW-620 colon; SK-OV-3 ovarian; NCI-H23 lung; RPMI-8226 leukemia; OVCAR-5 ovarian; PC-3 prostate; NCI/ADR-RES ovarian; BT-549 breast.
Common to all, as to experiment: growth of human tumour cells (NCI), 48 h

With `C=CCC(N(C)C(=O)[C@H](Cc1ccccc1)NC(=O)OCc1ccccc1)P(=O)(Oc1ccccc1)Oc1ccccc1` (some centres not stated), the TGI with K-562 leukemia, in the assay with EKVX NSCLC, with HCC-2998 colon, in the assay with IGROV1 ovarian, with HCT-116 colon and in the assay on NCI-H522 lung was over 100 µM throughout. Besides, the TGI in the assay with SK-MEL-2 melanoma, in the assay with NCI-H460 lung, with MOLT-4 leukemia, in the assay with COLO 205 colon, in the assay on SW-620 colon and in the assay on SK-OV-3 ovarian was over 100 µM throughout. The TGI in the assay with NCI-H23 lung and with RPMI-8226 leukemia was over 100 µM each time.

Turning to `CC(C)CC(NC(=O)OC(C)(C)C)C(=O)Nc1ccc(Nc2nc(F)nc(-c3c4ccccc4c4n3CCS4)n2)cc1` (configuration not stated), the TGI in the assay with K-562 leukemia stood at 57.8 µM; with EKVX NSCLC, 37.8 µM; in the assay with HCC-2998 colon, 35 µM; with IGROV1 ovarian, 42.3 µM; in the assay on HCT-116 colon it was 46 µM; in the assay on NCI-H522 lung it was 29.2 µM. The TGI in the assay on SK-MEL-2 melanoma came out at 33.6 µM; with NCI-H460 lung, 36.5 µM; in the assay with MOLT-4 leukemia it was 39 µM; in the assay with OVCAR-5 ovarian, 44.7 µM; in the assay with COLO 205 colon, 33.3 µM; with SW-620 colon it was 30.7 µM. For the same compound, the TGI with SK-OV-3 ovarian came to 32.9 µM; in the assay on NCI-H23 lung it was 33.1 µM; in the assay on RPMI-8226 leukemia, 58.6 µM.

With `O=C1c2ccccc2OP(=O)(OCC(F)(F)F)OC1(C(F)(F)F)C(F)(F)F` (configuration not stated), the TGI in the assay with K-562 leukemia, in the assay on EKVX NSCLC, with HCC-2998 colon, in the assay with IGROV1 ovarian, in the assay on HCT-116 colon and in the assay on NCI-H522 lung was over 100 µM throughout. The TGI in the assay with SK-MEL-2 melanoma, in the assay on NCI-H460 lung, with MOLT-4 leukemia, with OVCAR-5 ovarian, in the assay on COLO 205 colon and in the assay with SW-620 colon was over 100 µM throughout. For the same compound, the TGI in the assay on SK-OV-3 ovarian, with NCI-H23 lung and in the assay with RPMI-8226 leukemia was over 100 µM throughout.

For `Cc1ccc([N+](=O)[O-])cc1NC(=O)/C(=N/NC(=S)NN)C1SC(=S)NC1=O` (configuration not stated), the TGI in the assay on K-562 leukemia, in the assay on EKVX NSCLC, in the assay on IGROV1 ovarian, in the assay on HCT-116 colon, in the assay on NCI-H522 lung and in the assay with SK-MEL-2 melanoma was over 100 µM in each case. In addition, the TGI in the assay with NCI-H460 lung, in the assay with MOLT-4 leukemia, in the assay on OVCAR-5 ovarian, with COLO 205 colon, in the assay with SW-620 colon and with SK-OV-3 ovarian was over 100 µM each time. For the same compound, the TGI in the assay on NCI-H23 lung and with RPMI-8226 leukemia was over 100 µM each time.

Regarding `COC(=O)CC1NC(=O)[C@@H]1C(C)O` (some centres not stated), the TGI with K-562 leukemia, in the assay with EKVX NSCLC, in the assay on HCC-2998 colon, in the assay on IGROV1 ovarian, in the assay on HCT-116 colon and in the assay on SK-MEL-2 melanoma was over 100 µM each time. In addition, the TGI in the assay on NCI-H460 lung, in the assay with MOLT-4 leukemia, in the assay with COLO 205 colon, with SW-620 colon and with RPMI-8226 leukemia was over 100 µM in each case.

Turning to `N#C/C(c1nc2ccccc2[nH]1)=c1\s/c(=C/c2ccc(Cl)cc2)c(=O)n1-c1ccccc1`, the TGI with K-562 leukemia, with EKVX NSCLC, in the assay with HCC-2998 colon, with IGROV1 ovarian, with HCT-116 colon and with NCI-H522 lung was over 100 µM in each case. The TGI in the assay on SK-MEL-2 melanoma, in the assay with NCI-H460 lung, with MOLT-4 leukemia, with OVCAR-5 ovarian, with COLO 205 colon and in the assay with SW-620 colon was over 100 µM throughout. The TGI in the assay with SK-OV-3 ovarian, with NCI-H23 lung and in the assay with RPMI-8226 leukemia was over 100 µM throughout.

Turning to `COc1cccc([C@H]2C/C(=N\NC(=O)C(=O)N[C@@H](C)c3ccccc3)c3ccccc3N2)c1`, the TGI with K-562 leukemia was 0.0554 µM; with EKVX NSCLC, over 100 µM; in the assay on HCC-2998 colon, 0.0495 µM; in the assay with HCT-116 colon it was 12 µM; in the assay with SK-MEL-2 melanoma, over 100 µM; with PC-3 prostate, over 100 µM. In addition, the TGI in the assay with OVCAR-5 ovarian was over 100 µM; in the assay on COLO 205 colon it was 13.1 µM; in the assay on SW-620 colon, over 100 µM; in the assay with SK-OV-3 ovarian, over 100 µM; with NCI/ADR-RES ovarian, 0.0535 µM; with RPMI-8226 leukemia, 0.0503 µM. In addition, the GI50 in the assay on NCI/ADR-RES ovarian is under 0.01 µM.

`Cc1ccc(N2C(=O)CS/C2=C(\C#N)c2nc3ccccc3[nH]2)cc1`: the TGI with K-562 leukemia, in the assay on EKVX NSCLC, in the assay with HCC-2998 colon, with IGROV1 ovarian, in the assay with HCT-116 colon and in the assay with NCI-H522 lung was over 100 µM in each case. Also, the TGI in the assay with SK-MEL-2 melanoma, with NCI-H460 lung, in the assay with MOLT-4 leukemia, in the assay on OVCAR-5 ovarian, with COLO 205 colon and in the assay on SW-620 colon was over 100 µM in each case. In addition, the TGI in the assay on NCI-H23 lung and with RPMI-8226 leukemia was over 100 µM in each case.

On to `COc1ccc(N=Cc2ccc(N(CCC#N)S(=O)(=O)c3ccccc3)cc2)cc1`, for which the TGI with K-562 leukemia, in the assay on EKVX NSCLC, in the assay with IGROV1 ovarian, in the assay with HCT-116 colon, with NCI-H522 lung and in the assay with SK-MEL-2 melanoma was over 100 µM in each case. The TGI in the assay with NCI-H460 lung, with MOLT-4 leukemia, with OVCAR-5 ovarian, in the assay with COLO 205 colon, in the assay with SW-620 colon and in the assay on SK-OV-3 ovarian was over 100 µM each time. Also, the TGI in the assay on NCI-H23 lung and in the assay on RPMI-8226 leukemia was over 100 µM throughout.

As to `CCOC(=O)/C=C/n1c2ccccc2c(=O)c2ccccc21`, the TGI in the assay on K-562 leukemia, in the assay on EKVX NSCLC, with HCC-2998 colon, in the assay on IGROV1 ovarian, with HCT-116 colon and with NCI-H522 lung was over 100 µM in each case. The TGI in the assay with SK-MEL-2 melanoma, in the assay on NCI-H460 lung, with MOLT-4 leukemia, in the assay on COLO 205 colon, in the assay on SW-620 colon and in the assay with NCI-H23 lung was over 100 µM each time. The same compound registered a TGI in the assay on RPMI-8226 leukemia of over 100 µM.

Take `CC1=NN(c2nc(N)nc(CSc3nc4n(c(=S)n3)CCN4)n2)C(C)(C)C1`: the TGI in the assay on K-562 leukemia is over 100 µM; in the assay on EKVX NSCLC, over 100 µM; in the assay with HCC-2998 colon, over 100 µM; with IGROV1 ovarian, 51.5 µM; with HCT-116 colon, over 100 µM; with SK-MEL-2 melanoma, 62.6 µM. For the same compound, the TGI in the assay with PC-3 prostate, in the assay on BT-549 breast, with NCI-H460 lung, in the assay with MOLT-4 leukemia, with COLO 205 colon and in the assay with SW-620 colon was over 100 µM throughout. In addition, the TGI in the assay on SK-OV-3 ovarian was 71.6 µM; in the assay with NCI-H23 lung, over 100 µM; in the assay with NCI/ADR-RES ovarian, over 100 µM; in the assay on RPMI-8226 leukemia, over 100 µM.

For the compound `Nc1nc(SCc2ccc([N+](=O)[O-])cc2)nc2c1ncn2C1OC(CO)C(O)C1O` (configuration not stated), the TGI in the assay with K-562 leukemia, in the assay with EKVX NSCLC, in the assay on HCC-2998 colon, in the assay with IGROV1 ovarian, with HCT-116 colon and in the assay with NCI-H522 lung was over 100 µM each time. Moreover, the TGI in the assay on NCI-H460 lung, with MOLT-4 leukemia, in the assay with OVCAR-5 ovarian, with COLO 205 colon, in the assay on SW-620 colon and with NCI-H23 lung was over 100 µM each time. The TGI in the assay on RPMI-8226 leukemia was over 100 µM.

In the case of `CCOc1ccc(/C(Cl)=C(\C=O)c2ccc(OC)c(OC)c2)cc1OCC`, the TGI in the assay on K-562 leukemia, in the assay on EKVX NSCLC, with HCC-2998 colon, with IGROV1 ovarian, with HCT-116 colon and in the assay on NCI-H522 lung was over 100 µM throughout. For the same compound, the TGI with SK-MEL-2 melanoma, in the assay on NCI-H460 lung, in the assay with MOLT-4 leukemia, in the assay with OVCAR-5 ovarian, in the assay on COLO 205 colon and with SW-620 colon was over 100 µM throughout. In addition, the TGI in the assay with SK-OV-3 ovarian, in the assay with NCI-H23 lung and in the assay on RPMI-8226 leukemia was over 100 µM each time.

For `CN(C)C(=S)/N=c1\ssc(=S)n1Cc1cccnc1`, the TGI in the assay on K-562 leukemia was over 100 µM; in the assay with EKVX NSCLC, over 100 µM; in the assay with HCC-2998 colon it was over 100 µM; in the assay with IGROV1 ovarian, over 100 µM; with HCT-116 colon it was over 100 µM; in the assay with NCI-H522 lung, 9.61 µM. For the same compound, the TGI in the assay with SK-MEL-2 melanoma is over 35.8 µM; in the assay on PC-3 prostate, over 100 µM; in the assay on NCI-H460 lung it was over 95.7 µM; with MOLT-4 leukemia, 98.5 µM; with OVCAR-5 ovarian, over 100 µM; in the assay with COLO 205 colon, 32.1 µM. For the same compound, the TGI is over 53.2 µM with SW-620 colon; over 81.1 µM with SK-OV-3 ovarian; over 69.6 µM in the assay with NCI-H23 lung; 4.51 µM in the assay with NCI/ADR-RES ovarian; over 100 µM in the assay on RPMI-8226 leukemia.

In the case of `CC1CN(c2ccc(Cl)cc2)CC(C)OC(=O)O1` (configuration not stated), the TGI in the assay on K-562 leukemia, in the assay on EKVX NSCLC, with HCC-2998 colon, in the assay on IGROV1 ovarian, in the assay with NCI-H522 lung and in the assay with SK-MEL-2 melanoma was over 100 µM in each case. Also, the TGI with NCI-H460 lung, with OVCAR-5 ovarian, in the assay on COLO 205 colon, in the assay on SW-620 colon, in the assay on SK-OV-3 ovarian and in the assay with NCI-H23 lung was over 100 µM in each case. The compound also gave a TGI in the assay with RPMI-8226 leukemia of over 100 µM.
